In ChEMBL document CHEMBL4251585, “Accelerated skin wound healing by selective 11β-Hydroxylase (CYP11B1) inhibitors” (Eur J Med Chem, 2018):

Tests used:
[1] = Half life in human liver S9 fraction at 1 uM up to 60 mins in presence of NADPH/UDPGA by LC-MS/MS analysis; format: ADME, subcellular
[2] = biological target: T1, 11-beta-hydroxysteroid dehydrogenase 1 (Homo sapiens, UniProt P28845); experiment: Inhibition of human 11beta-HSD1 expressed in HEK293 cell lysate using [1,2-3H]-cortisone as substrate preincubated for 10 mins followed by substrate addition in presence of NADPH by scintillation counting
Target sequence in this assay (P28845 whole entry): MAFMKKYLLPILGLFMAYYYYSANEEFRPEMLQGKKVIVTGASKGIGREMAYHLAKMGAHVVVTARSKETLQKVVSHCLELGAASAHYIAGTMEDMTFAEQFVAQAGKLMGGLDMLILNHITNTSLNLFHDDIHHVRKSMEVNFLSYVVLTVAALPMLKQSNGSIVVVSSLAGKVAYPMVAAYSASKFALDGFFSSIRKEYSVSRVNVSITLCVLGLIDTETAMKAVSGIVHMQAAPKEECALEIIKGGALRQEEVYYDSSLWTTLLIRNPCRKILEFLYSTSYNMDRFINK

[3] = biological target: T2, 11-beta-hydroxysteroid dehydrogenase type 2 (Homo sapiens, UniProt P80365); experiment: Inhibition of human 11beta-HSD2 expressed in HEK293 cell lysates at 10 uM using [1,2,6,7-3H]-cortisol as substrate preincubated for 10 mins followed by substrate addition in presence of NAD by scintillation counting relative to control; design: species or system Lysate
T2 sequence (P80365 whole entry): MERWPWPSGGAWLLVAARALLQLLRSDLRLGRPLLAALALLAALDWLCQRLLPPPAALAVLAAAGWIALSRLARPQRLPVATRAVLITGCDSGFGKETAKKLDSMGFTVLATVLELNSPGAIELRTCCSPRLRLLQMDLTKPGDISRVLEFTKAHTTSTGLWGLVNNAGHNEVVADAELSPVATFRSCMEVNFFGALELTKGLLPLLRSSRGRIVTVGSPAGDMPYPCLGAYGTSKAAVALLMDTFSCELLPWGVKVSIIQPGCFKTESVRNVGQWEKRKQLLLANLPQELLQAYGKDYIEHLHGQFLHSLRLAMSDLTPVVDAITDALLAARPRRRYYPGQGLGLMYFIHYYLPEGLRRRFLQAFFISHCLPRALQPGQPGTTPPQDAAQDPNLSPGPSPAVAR

[4] = biological target: T3, Cytochrome P450 11B1, mitochondrial (Homo sapiens, UniProt P15538); experiment: Inhibition of human CYP11B1 expressed in hamster V79MZ cells using [1,2-3H]-11-deoxycorticosterone as substrate after 6 hrs by HPTLC analysis; format: cell-based
T3 sequence (P15538 whole entry): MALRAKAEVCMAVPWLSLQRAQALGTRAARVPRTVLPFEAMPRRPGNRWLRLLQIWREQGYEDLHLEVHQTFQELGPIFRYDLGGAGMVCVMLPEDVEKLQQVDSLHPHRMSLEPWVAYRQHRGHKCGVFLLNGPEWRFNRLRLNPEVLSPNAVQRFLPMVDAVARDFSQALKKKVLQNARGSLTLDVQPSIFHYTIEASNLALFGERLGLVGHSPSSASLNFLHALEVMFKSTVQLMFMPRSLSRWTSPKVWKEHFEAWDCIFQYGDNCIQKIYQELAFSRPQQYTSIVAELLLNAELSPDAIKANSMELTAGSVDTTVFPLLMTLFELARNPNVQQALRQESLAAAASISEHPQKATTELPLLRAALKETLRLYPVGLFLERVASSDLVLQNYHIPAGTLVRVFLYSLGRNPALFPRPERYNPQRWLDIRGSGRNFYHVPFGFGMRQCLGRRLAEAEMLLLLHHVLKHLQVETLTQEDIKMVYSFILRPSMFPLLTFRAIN

[5] = biological target: T4, CYP17A1 (Homo sapiens, UniProt P05093); experiment: Inhibition of human CYP17A1 expressed in Escherichia coli XL1 at 2 uM using [3H]-progesterone as substrate preincubated with substrate for 5 mins measured after 45 mins by HPLC analysis; format: ADME; settings: human CYP17A1 expressed in Escherichia coli XL1, probe [3H]-progesterone
T4 sequence (P05093 whole entry): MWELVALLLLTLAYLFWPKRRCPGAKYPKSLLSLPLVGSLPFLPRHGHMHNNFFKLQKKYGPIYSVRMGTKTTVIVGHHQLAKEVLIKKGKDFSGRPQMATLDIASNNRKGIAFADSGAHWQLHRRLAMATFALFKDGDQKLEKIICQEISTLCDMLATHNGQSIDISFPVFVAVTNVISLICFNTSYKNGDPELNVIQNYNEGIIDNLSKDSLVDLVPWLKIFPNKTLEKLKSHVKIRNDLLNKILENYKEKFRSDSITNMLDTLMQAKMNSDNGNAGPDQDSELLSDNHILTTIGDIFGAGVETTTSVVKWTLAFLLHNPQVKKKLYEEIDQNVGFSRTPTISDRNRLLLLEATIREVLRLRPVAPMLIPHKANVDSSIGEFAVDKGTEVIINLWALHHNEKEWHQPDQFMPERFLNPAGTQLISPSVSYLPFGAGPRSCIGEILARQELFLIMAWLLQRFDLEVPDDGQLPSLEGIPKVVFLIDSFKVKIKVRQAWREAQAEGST

[6] = biological target: T5, CYP19A1 (aromatase) (Homo sapiens, UniProt P11511); experiment: Inhibition of human placental microsomal CYP19A1 at 2 uM using [1beta-3H]androstenedione after 21 mins by liquid scintillation spectrometry; format: ADME; settings: placental microsomes, probe [1beta-3H]androstenedione
T5 sequence (P11511 whole entry): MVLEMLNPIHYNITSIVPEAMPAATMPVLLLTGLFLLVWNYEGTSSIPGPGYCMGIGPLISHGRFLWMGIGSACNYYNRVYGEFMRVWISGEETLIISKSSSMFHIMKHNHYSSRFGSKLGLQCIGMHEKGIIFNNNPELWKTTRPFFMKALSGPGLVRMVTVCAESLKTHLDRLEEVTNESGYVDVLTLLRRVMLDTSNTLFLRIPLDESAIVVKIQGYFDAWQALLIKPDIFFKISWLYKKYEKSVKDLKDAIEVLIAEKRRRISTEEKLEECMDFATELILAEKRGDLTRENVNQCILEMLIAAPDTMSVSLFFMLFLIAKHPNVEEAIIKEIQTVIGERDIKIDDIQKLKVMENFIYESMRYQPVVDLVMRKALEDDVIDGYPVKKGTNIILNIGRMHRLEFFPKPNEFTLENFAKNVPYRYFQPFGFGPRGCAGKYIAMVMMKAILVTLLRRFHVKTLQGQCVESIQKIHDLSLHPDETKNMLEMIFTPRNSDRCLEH

[7] = tested on: Salmonella typhimurium; experiment: Mutagenicity in Salmonella typhimurium TA7001/7002/7003/7004/7005/7006 up to 100 uM in absence of rat liver S9 fraction by Ames 2 assay; format: toxicity, organism-based; settings: salmonella enterica subsp. enterica serovar typhimurium
[8] = biological target: T2, 11-beta-hydroxysteroid dehydrogenase type 2; experiment: Inhibition of human 11beta-HSD2 expressed in HEK293 cell lysates at 200 uM using [1,2,6,7-3H]-cortisol as substrate preincubated for 10 mins followed by substrate addition in presence of NAD by scintillation counting relative to control; design: species or system Lysate
[9] = tested on: Salmonella typhimurium; experiment: Mutagenicity in Salmonella typhimurium TA98 up to 100 uM in presence of rat liver S9 fraction by Ames 2 assay; format: toxicity, organism-based; settings: salmonella enterica subsp. enterica serovar typhimurium
[10] = tested on: Zone of skin; experiment: Induction of wound healing in human skin explant assessed as re-epithelialization at 5 uM administered topically for 3 days measured on day 2 post administration by hematoxylin-eosin-saffron staining based microscopic analysis (reference value: 28 +/- 2%); format: functional
[11] = tested on: Zone of skin; experiment: Induction of wound healing in human skin explant assessed as re-epithelialization at 5 uM administered topically for 3 days measured on day 1 post administration by hematoxylin-eosin-saffron staining based microscopic analysis (reference value: 13 +/- 7%); format: functional
[12] = tested on: Zone of skin; experiment: Induction of wound healing in human skin explant assessed as re-epithelialization at 5 uM administered topically for 3 days measured on day 3 post administration by hematoxylin-eosin-saffron staining based microscopic analysis relative to control; format: functional
[13] = tested on: Salmonella typhimurium; experiment: Mutagenicity in Salmonella typhimurium TA7001/7002/7003/7004/7005/7006 up to 100 uM in presence of rat liver S9 fraction by Ames 2 assay; format: toxicity, organism-based; settings: salmonella enterica subsp. enterica serovar typhimurium
[14] = Half life in human plasma at 1 uM up to 150 mins by LC-MS/MS analysis; format: ADME, cell-free
[15] = Cytotoxicity against human epidermal keratinocytes assessed as cell viability at 11 uM after 72 hrs by MTT assay relative to control; design: species or system Keratinocyte; settings: read-out: Activity
[16] = biological target: T1, 11-beta-hydroxysteroid dehydrogenase 1; experiment: Inhibition of human 11beta-HSD1 expressed in HEK293 cell lysates at 200 uM using [1,2-3H]-cortisone as substrate preincubated for 10 mins followed by substrate addition in presence of NADPH by scintillation counting relative to control
Target sequence in this assay (P28845 whole entry, looked up): as the sequence (P28845 whole entry) above

[17] = tested on: Salmonella typhimurium; experiment: Mutagenicity in Salmonella typhimurium TA98 up to 100 uM in absence of rat liver S9 fraction by Ames 2 assay; format: toxicity, organism-based; settings: salmonella enterica subsp. enterica serovar typhimurium
[18] = biological target: T1, 11-beta-hydroxysteroid dehydrogenase 1; experiment: Inhibition of human 11beta-HSD1 expressed in HEK293 cell lysates at 50 uM using [1,2-3H]-cortisone as substrate preincubated for 10 mins followed by substrate addition in presence of NADPH by scintillation counting relative to control
Target sequence in this assay (P28845 whole entry, looked up): as the sequence (P28845 whole entry) above

| SMILES | half-life at 1 µM [1] | IC50 [4] | inhibition at 0.75 h, 2 µM [5] | inhibition at 0.35 h, 2 µM [6] | inhibition (INH) [8] | inhibition [16] | other results |
| --- | --- | --- | --- | --- | --- | --- | --- |
| Oc1cncc(Cc2cnc(-c3ccccc3)s2)c1 |  | 77 nM |  |  |  |  |  |
| Oc1cncc(Cc2cc(-c3ccccc3)no2)c1 |  | 120 nM |  |  |  |  |  |
| Oc1cncc(Cc2ccc(-c3ccccc3F)nc2)c1 | 21 min | 29 nM |  | 1% |  |  |  |
| CC(C)(C(=O)c1cccnc1)c1cccnc1 [METYRAPONE] | 49 min |  |  | 0% | Not Active | 70% | inhibition [18]: 54% |

Continued, in another order:

| half-life at 1 µM [1] | IC50 [4] | inhibition at 0.75 h, 2 µM [5] | inhibition at 0.35 h, 2 µM [6] | inhibition (INH) [8] | inhibition [16] | SMILES | other results |
| --- | --- | --- | --- | --- | --- | --- | --- |
| 33 min | 17 nM | 10% | 0% |  |  | Cn1nc(-c2ccccc2)cc1Cc1cncc(O)c1 | IC50 [2]: 1620 nM; inhibition (INH) [3]: Not Active |
| 19 min | 0.8 nM | 5% | 2% | Not Active | 48% | COc1cncc(Cc2ccc(-c3ccccc3F)nc2)c1 | Activity [7]: Non-Toxic; Activity [9]: Non-Toxic; Activity [10]: 89%; Activity [11]: 10%; Activity [12]: 98%; Activity [13]: Non-Toxic; half-life at 1 µM [14]: > 150 min; viability at 72 h, 11 µM [15]: 87%; Activity [17]: Non-Toxic |
